Results: patent publication US20120101095A1, “ALKOXY-THIENOPYRIMIDINES AS TGF-BETA RECEPTOR KINASE MODULATORS” (priority 2009, published 2012)

Target: T1, GST-ALK5 (Homo sapiens, UniProt P36897)
T1 sequence (P36897 34-503): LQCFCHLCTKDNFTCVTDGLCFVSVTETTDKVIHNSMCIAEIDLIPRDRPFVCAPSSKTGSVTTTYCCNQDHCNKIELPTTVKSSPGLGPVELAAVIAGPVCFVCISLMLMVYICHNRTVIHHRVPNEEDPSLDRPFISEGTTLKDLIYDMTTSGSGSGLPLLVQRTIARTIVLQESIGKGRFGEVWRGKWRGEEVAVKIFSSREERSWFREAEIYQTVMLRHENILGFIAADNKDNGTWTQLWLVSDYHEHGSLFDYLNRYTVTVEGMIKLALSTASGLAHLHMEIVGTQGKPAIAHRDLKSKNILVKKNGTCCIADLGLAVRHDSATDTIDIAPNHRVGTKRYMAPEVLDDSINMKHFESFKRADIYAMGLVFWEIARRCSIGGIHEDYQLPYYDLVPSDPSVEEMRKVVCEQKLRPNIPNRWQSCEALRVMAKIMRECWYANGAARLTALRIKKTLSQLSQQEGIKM
Assay: In-vitro (enzyme) kinase assay, 384-well flashplate, GST-SMAD2 substrate
Assay type: biochemical
Details: 31.2 nM GST-ALK5, 439 nM GST-SMAD2, 3 mM ATP, 30° C., 45 min
Description: In-Vitro (Enzyme) Assay for Determination of the Efficacy of Inhibitors of the Inhibition of TGF-Beta-Mediated Effects
The kinase assay was carried out as 384-well flashplate assay. 31.2 nM of GST-ALK5, 439 nM of GST-SMAD2 and 3 mM of ATP (with 0.3 μCi of ^33P-ATP/well) were incubated in a total volume of 35 μl (20 mM of HEPES, 10 mM of MgCl2, 5 mM of MnCl2, 1 mM of DTT, 0.1% of BSA, pH 7.4) without or with test substance (5-10 concentrations) at 30° C. for 45 min. The reaction was stopped using 25 μl of 200 mM EDTA solution, filtered with suction at room temperature after 30 min, and the wells were washed with 3 times 100 μl of 0.9% NaCl solution. Radioactivity was measured in the TopCount. The IC50 values were calculated using RS1 (Table 1). Above and below, all temperatures were indicated in ° C.

Row | Structure (SMILES) | IC50
1 | COCCOc1nc(-c2cccc(Cl)c2)c2c(N)c(C(N)=O)sc2n1 [No 1, 5-Amino-4-(3-chloro-phenyl)-2-(2-methoxy-ethoxy)-thieno[2,3-d]pyrimidine-6-carboxylic acid amide] | 0.1 to 0.5 µM
2 | NC(=O)c1sc2nc(OCC3CC3)nc(-c3cc4ccccc4s3)c2c1N [No 2] | > 1 µM
3 | C=CCOc1nc(-c2cccc(Cl)c2)c2c(N)c(C(N)=O)sc2n1 [No 3, 2-Allyloxy-5-amino-4-(3-chloro-phenyl)-thieno[2,3-d]pyrimidine-6-carboxylic acid amide] | < 0.1 µM
4 | NC(=O)c1sc2nc(OCC3CC3)nc(-c3cccc(Cl)c3)c2c1N [No 4, 5-Amino-4-(3-chloro-phenyl)-2-cyclopropylmethoxy-thieno[2,3-d]pyrimidine-6-carboxylic acid amide] | < 0.1 µM
5 | COc1nc(-c2cccc(C(F)(F)F)c2)c2c(N)c(C(N)=O)sc2n1 [No 5, 5-Amino-2-methoxy-4-(3-trifluoromethyl-phenyl)-thieno[2,3-d]pyrimidine-6-carboxylic acid amide] | 0.1 to 0.5 µM
6 | COc1nc(-c2cccc(Cl)c2)c2c(N)c(C(N)=O)sc2n1 [No 6, 5-Amino-4-(3-chloro-phenyl)-2-methoxy-thieno[2,3-d]pyrimidine-6-carboxylic acid amide] | < 0.1 µM
7 | NC(=O)c1sc2nc(OCC3CCCC3)nc(-c3cccc(Cl)c3)c2c1N [No 7, 5-Amino-4-(3-chloro-phenyl)-2-cyclopentylmethoxy-thieno[2,3-d]pyrimidine-6-carboxylic acid amide] | 0.5 to 1 µM
8 | NC(=O)c1sc2nc(OCC3CCCC3)nc(-c3cccc(C(F)(F)F)c3)c2c1N [No 8, 5-Amino-2-cyclopentylmethoxy-4-(3-trifluoromethyl-phenyl)-thieno[2,3-d]pyrimidine-6-carboxylic acid amide] | > 1 µM
9 | NC(=O)c1sc2nc(OCC3CCC3)nc(-c3cccc(Cl)c3)c2c1N [No 9, 5-Amino-4-(3-chloro-phenyl)-2-cyclobutylmethoxy-thieno[2,3-d]pyrimidine-6-carboxylic acid amide] | 0.1 to 0.5 µM
10 | NC(=O)c1sc2nc(OCC3CCC3)nc(-c3cccc(C(F)(F)F)c3)c2c1N [No 10, 5-Amino-2-cyclobutylmethoxy-4-(3-trifluoromethyl-phenyl)-thieno[2,3-d]pyrimidine-6-carboxylic acid amide] | > 1 µM
11 | CC(C)(C)OCCOc1nc(-c2cccc(Cl)c2)c2c(N)c(C(N)=O)sc2n1 [No 11, 5-Amino-2-(2-tert-butoxy-ethoxy)-4-(3-chloro-phenyl)-thieno[2,3-d]pyrimidine-6-carboxylic acid amide] | 0.1 to 0.5 µM
12 | CC(C)(C)OCCOc1nc(-c2cccc(C(F)(F)F)c2)c2c(N)c(C(N)=O)sc2n1 [No 12, 5-Amino-2-(2-tert-butoxy-ethoxy)-4-(3-trifluoromethyl-phenyl)-thieno[2,3-d]pyrimidine-6-carboxylic acid amide] | 0.5 to 1 µM
13 | NC(=O)c1sc2nc(OCCO)nc(-c3cccc(Cl)c3)c2c1N [No 13, 5-Amino-4-(3-chloro-phenyl)-2-(2-hydroxy-ethoxy)-thieno[2,3-d]pyrimidine-6-carboxylic acid amide] | 0.1 to 0.5 µM
14 | NC(=O)c1sc2nc(OCC3CC3)nc(-c3cccc(C(F)(F)F)c3)c2c1N [No 14, 5-Amino-2-cyclopropylmethoxy-4-(3-trifluoromethyl-phenyl)-thieno[2,3-d]pyrimidine-6-carboxylic acid amide] | > 1 µM
15 | NC(=O)c1sc2nc(OCCO)nc(-c3cccc(C(F)(F)F)c3)c2c1N [No 15, 5-Amino-2-(2-hydroxy-ethoxy)-4-(3-trifluoromethyl-phenyl)-thieno[2,3-d]pyrimidine-6-carboxylic acid amide] | 0.5 to 1 µM
16 | COCCOc1nc(-c2cccc(C(F)(F)F)c2)c2c(N)c(C(N)=O)sc2n1 [No 16, 5-Amino-2-(2-methoxy-ethoxy)-4-(3-trifluoromethyl-phenyl)-thieno[2,3-d]pyrimidine-6-carboxylic acid amide] | 0.5 to 1 µM
